Experimental data published in PMC6017931, “A Novel Class of Schistosoma mansoni Histone Deacetylase 8 (HDAC8) Inhibitors Identified by Structure-Based Virtual Screening and In Vitro Testing” (Molecules : A Journal of Synthetic Chemistry and Natural …, 2018).

How the values were obtained:
[1] = molecular target: T1, smHDAC8 (Schistosoma mansoni, UniProt A5H660); test: smHDAC8 in vitro inhibition assay; assay type: biochemical; settings: for IC50: mean ± S.E., Fluor de Lys-HDAC8 substrate 50 µM, 90 min at 37 °C
T1 construct: made in house; host or cells: E. coli
T1 sequence (A5H660 1-440): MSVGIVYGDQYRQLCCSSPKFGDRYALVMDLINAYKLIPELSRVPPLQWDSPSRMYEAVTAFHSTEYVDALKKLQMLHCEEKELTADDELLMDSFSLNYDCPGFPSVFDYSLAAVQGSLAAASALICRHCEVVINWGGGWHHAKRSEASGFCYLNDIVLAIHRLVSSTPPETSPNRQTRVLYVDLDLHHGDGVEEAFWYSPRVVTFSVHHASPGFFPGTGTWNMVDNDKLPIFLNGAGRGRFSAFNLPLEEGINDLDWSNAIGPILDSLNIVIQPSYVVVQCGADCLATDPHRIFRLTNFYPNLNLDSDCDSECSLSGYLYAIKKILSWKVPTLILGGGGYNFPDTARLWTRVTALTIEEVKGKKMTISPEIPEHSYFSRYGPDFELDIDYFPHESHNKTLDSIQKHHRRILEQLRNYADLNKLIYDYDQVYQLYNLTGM
Experimental: The biological assay was carried out using purified smHDAC8 protein and the small molecule substrate Z(Tfa)Lys-AMC (ZMTFAL) as previously reported. To assess the selectivity, the selected compounds were further tested against the human orthologue hsHDAC8 as well as the major human HDAC isoforms (HDAC1 and -6) using an established in vitro assay.
Recombinant human HDAC1 and HDAC6 were purchased from BPS Bioscience. Recombinant human HDAC8 was expressed and purified as previously described. Recombinant smHDAC8 enzyme was produced in E. coli cells and purified by a method previously described by us. Inhibition assays of smHDAC8 and human HDACs were performed as already described in previous publications. Briefly, the commercial Fluor de Lys kit (BML-KI178) was used for testing inhibition of smHDAC8 and hsHDAC8. Test compounds, Fluor de Lys-HDAC8 substrate (50 µM) and enzyme were incubated for 90 min at 37 °C with subsequent addition of 50 μL Developer II (BML-KI176) and further incubation for 45 min at 30 °C. Fluorescence was measured in a plate reader (BMG Polarstar) with excitation at λ = 390 nm and emission at λ = 460 nm. Inhibition tests of human HDAC1 and 6 were conducted using ZMAL (Cbz-(Ac)Lys-AMC) as substrate and trypsin as a developer. […] Trichostatin A (2 µM) was used in both assays to stop the reaction. Fluorescence was measured similarly as mentioned above. IC50 values were determined with OriginPro (version 9.0.0, Northampton, MA, USA). IC50 Values in Table 1 are given as mean ± S.E.

[2] = molecular target: T2, hsHDAC8 (Homo sapiens, UniProt Q9BY41); test: hsHDAC8 in vitro inhibition assay; assay type: biochemical; settings: mean ± S.E.; Fluor de Lys-HDAC8 substrate 50 µM, 90 min at 37 °C
T2 construct: made in house
T2 sequence (Q9BY41 1-377): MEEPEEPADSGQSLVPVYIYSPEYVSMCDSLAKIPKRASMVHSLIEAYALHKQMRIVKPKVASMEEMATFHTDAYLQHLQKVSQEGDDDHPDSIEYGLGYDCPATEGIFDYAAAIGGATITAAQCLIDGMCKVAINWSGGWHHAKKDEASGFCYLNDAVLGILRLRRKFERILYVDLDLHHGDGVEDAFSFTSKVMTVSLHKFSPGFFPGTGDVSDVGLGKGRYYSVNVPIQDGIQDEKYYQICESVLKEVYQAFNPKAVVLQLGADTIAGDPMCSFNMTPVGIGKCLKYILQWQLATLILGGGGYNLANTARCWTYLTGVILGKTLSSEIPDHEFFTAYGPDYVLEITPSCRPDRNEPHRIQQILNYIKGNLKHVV
Experimental: (§1) The biological assay was carried out using purified smHDAC8 protein and the small molecule substrate Z(Tfa)Lys-AMC (ZMTFAL) as previously reported. To assess the selectivity, the selected compounds were further tested against the human orthologue hsHDAC8 as well as the major human HDAC isoforms (HDAC1 and -6) using an established in vitro assay. […] Recombinant human HDAC1 and HDAC6 were purchased from BPS Bioscience. Recombinant human HDAC8 was expressed and purified as previously described. Recombinant smHDAC8 enzyme was produced in E. coli cells and purified by a method previously described by us. Inhibition assays of smHDAC8 and human HDACs were performed as already described in previous publications. Briefly, the commercial Fluor de Lys kit (BML-KI178) was used for testing inhibition of smHDAC8 and hsHDAC8. Test compounds, Fluor de Lys-HDAC8 substrate (50 µM) and enzyme were incubated for 90 min at 37 °C with subsequent addition of 50 μL Developer II (BML-KI176) and further incubation for 45 min at 30 °C. Fluorescence was measured in a plate reader (BMG Polarstar) with excitation at λ = 390 nm and emission at λ = 460 nm. Inhibition tests of human HDAC1 and 6 were conducted using ZMAL (Cbz-(Ac)Lys-AMC) as substrate and trypsin as a developer. […] Trichostatin A (2 µM) was used in both assays to stop the reaction. Fluorescence was measured similarly as mentioned above. IC50 values were determined with OriginPro (version 9.0.0, Northampton, MA, USA). IC50 Values in Table 1 are given as mean ± S.E.

[3] = molecular target: T3, hsHDAC1 (Homo sapiens, UniProt Q13547); test: hsHDAC1 in vitro inhibition assay; assay type: biochemical; settings: mean ± S.E.; ZMAL 10.5 µM, 90 min at 37 °C
T3 construct: purchased BPS Bioscience
T3 sequence (Q13547 whole entry): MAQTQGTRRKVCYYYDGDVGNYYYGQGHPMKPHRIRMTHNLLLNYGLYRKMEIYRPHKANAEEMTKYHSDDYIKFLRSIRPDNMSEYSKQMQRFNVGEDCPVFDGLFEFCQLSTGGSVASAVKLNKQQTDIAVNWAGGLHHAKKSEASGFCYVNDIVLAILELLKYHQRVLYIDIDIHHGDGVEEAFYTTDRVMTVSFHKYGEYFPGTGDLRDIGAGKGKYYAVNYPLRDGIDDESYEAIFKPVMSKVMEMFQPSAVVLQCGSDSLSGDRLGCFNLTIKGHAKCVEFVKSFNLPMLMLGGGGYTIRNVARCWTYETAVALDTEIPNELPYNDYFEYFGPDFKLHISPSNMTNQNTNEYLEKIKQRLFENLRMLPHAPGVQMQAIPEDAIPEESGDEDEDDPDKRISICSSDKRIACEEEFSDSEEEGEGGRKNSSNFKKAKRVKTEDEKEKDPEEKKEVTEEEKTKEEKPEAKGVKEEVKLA
Experimental: as §1

[4] = molecular target: T4, hsHDAC6 (Homo sapiens, UniProt Q9UBN7); test: hsHDAC6 in vitro inhibition assay; assay type: biochemical; settings: for IC50: mean ± S.E., ZMAL 10.5 µM, 90 min at 37 °C
T4 construct: purchased BPS Bioscience
T4 sequence (Q9UBN7 1-1215): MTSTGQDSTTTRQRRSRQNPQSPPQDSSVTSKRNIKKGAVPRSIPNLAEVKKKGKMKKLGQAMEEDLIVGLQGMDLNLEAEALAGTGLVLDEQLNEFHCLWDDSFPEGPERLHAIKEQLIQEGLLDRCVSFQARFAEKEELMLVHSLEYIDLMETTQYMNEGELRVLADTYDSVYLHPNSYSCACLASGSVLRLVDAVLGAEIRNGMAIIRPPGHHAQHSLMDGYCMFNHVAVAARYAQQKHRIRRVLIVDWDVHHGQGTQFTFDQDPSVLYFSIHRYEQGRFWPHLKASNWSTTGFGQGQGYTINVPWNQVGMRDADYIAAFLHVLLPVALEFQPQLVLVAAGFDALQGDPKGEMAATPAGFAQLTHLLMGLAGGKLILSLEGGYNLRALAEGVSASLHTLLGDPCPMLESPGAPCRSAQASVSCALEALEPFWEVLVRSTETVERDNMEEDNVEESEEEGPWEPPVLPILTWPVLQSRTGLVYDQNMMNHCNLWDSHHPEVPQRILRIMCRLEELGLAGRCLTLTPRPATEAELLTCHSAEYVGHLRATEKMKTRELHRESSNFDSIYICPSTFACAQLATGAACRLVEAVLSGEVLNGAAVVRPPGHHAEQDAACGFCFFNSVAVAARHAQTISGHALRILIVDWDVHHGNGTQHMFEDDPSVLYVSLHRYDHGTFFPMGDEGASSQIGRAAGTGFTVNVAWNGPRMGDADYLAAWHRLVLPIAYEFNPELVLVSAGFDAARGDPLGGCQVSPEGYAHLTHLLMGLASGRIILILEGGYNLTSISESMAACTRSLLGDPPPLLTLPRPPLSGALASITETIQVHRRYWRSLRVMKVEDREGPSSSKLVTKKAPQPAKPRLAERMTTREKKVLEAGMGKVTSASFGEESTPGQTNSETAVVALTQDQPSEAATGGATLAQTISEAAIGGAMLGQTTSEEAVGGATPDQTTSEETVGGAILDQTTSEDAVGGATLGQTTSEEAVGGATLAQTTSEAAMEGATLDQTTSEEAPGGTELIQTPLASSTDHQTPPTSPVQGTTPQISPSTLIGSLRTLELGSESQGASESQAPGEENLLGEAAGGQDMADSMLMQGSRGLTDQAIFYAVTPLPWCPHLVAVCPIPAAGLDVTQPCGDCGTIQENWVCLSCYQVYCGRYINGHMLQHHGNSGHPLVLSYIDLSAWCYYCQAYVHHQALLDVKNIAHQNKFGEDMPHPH
Experimental: as §1

[5] = test system: S. mansoni schistosomula; design: method as in PMID 24086136; settings: at 100 µM; cited from earlier work
[6] = test system: S. mansoni schistosomula; test: Apoptosis induction in schistosomula (TUNEL); assay type: cell-based, Schistosoma mansoni; settings: 100 µM, after 3 days
Experimental: The compound J1036 induced dose-dependent apoptosis in the infective larval stage (schistosomula) of S. mansoni, affecting 67% of the larvae after 3 days at a dose of 100 µM (Figure 4), whereas a polar hydroxamate derivative (J1038) identified by a previous virtual screening was ineffective in the same assay (data not shown here). […]. Although we cannot directly correlate the inhibitory activity on smHDAC8 with the lethal effect of J1036 on schistosomula, the high level of expression of this class I HDAC [21] in the parasite, and its validation as a stand-alone target by transcript knockdown, mean that its inhibition is sufficient to induce the effects observed.
Figure 4 J1036 induces apoptosis in S. mansoni schistosomula in vitro. (A) Dose-dependent induction of apoptosis determined by dUTP nick end labeling (TUNEL) shown as the percentage of parasites positively labeled; (B) TUNEL staining of schistosomula treated with 100 µM J1036 for 3 days. Parasites were counterstained using 4′,6-Diamidino-2-Phenylindole (DAPI).
The capacity of compounds J1036 and J1038 to induce apoptosis in S. mansoni schistosomula was measured using dUTP nick end labelling (TUNEL) and the In Situ Cell Death Detection Kit TMR (Roche Applied Science, Penzberg, Germany) exactly as previously described.

IC50 [1]	IC50 [2]	IC50 [3]	inhibitory activity against HDAC6 (in words) [4]	IC50 [4]	inhibition at 25 µM ([1]; at 25 µM)	Structure (SMILES)	apoptosis, percentage of larvae affected [5]	apoptosis, percentage of larvae affected (TUNEL positive) [6]
5.9 ± 1.6 µM	7.72 ± 4.42 µM	1.42 ± 0.13 µM	submicromolar	0.77 ± 0.09 µM		CCCCCCC(=O)N(O)C1CC(=O)N(c2ccc(Br)cc2)C1=O (stereo not shown) [J1063]		
13.2 ± 1.85 µM	2.62 ± 0.19 µM	42.1 ± 2.2 µM		6.2 ± 0.34 µM		CCCCC(=O)N(O)C1CC(=O)N(c2ccccc2)C1=O (stereo not shown) [J1057]		
						O=C(CCCCCCC(=O)Nc1ccccc1)NO [SAHA]	43%	
						O=C(NO)c1sc2ccccc2c1Cl [J1075]	54%	
20.2 ± 2.7 µM	3.96 ± 0.6 µM	8.4 ± 0.28 µM		1.57 ± 0.37 µM		CCCCCCC(=O)N(O)C1CC(=O)N(c2ccc(C)cc2)C1=O (stereo not shown) [J1065]		
5.5 ± 0.7 µM	7.69 ± 3.3 µM	3.98 ± 0.45 µM		2.65 ± 0.29 µM		CCCCCCC(=O)N(O)C1CC(=O)N(c2ccc(Cl)cc2)C1=O (stereo not shown) [J1061]		
20.3 ± 2.78 µM	3.99 ± 0.74 µM	26 ± 2.4 µM		6.2 ± 0.41 µM		CCCCCC(=O)N(O)C1CC(=O)N(c2ccccc2)C1=O (stereo not shown) [J1058]		
					13%	CCCCCCC(=O)N(O)C1CC(=O)N(c2cccc(Cl)c2C)C1=O (stereo not shown) [J1066]		
11.5 ± 0.91 µM	1.8 ± 0.24 µM	5 ± 0.42 µM	submicromolar	0.86 ± 0.12 µM		CCCCCCC(=O)N(O)C1CC(=O)N(c2ccccc2)C1=O (stereo not shown) [J1060]		
7.79 ± 0.28 µM	2.08 ± 0.34 µM	4.3 ± 0.46 µM	submicromolar	0.6 ± 0.12 µM		CCCCCCC(=O)N(O)C1CC(=O)N(c2ccc(F)cc2)C1=O (stereo not shown) [J1064]		
4.4 ± 0.17 µM	0.49 ± 0.18 µM	6.76 ± 0.97 µM		5.02 ± 0.31 µM		CCCCCC(=O)N(O)C1CC(=O)N(c2ccc(Cl)cc2)C1=O (stereo not shown) [J1036]		67%

Structure (SMILES)	IC50 [1]	IC50 [2]	IC50 [3]	inhibitory activity against HDAC6 (in words) [4]	IC50 [4]	inhibition at 25 µM ([1]; at 25 µM)	apoptosis, percentage of larvae affected [5]	apoptosis, percentage of larvae affected (TUNEL positive) [6]
COc1ccc(C(=O)NO)cc1NC(=O)c1ccc(-c2ccccc2)cc1 [TH65, reference compound]	0.075 ± 0.025 µM	0.026 ± 0.017 µM	6.3 ± 2.1 µM		0.39 ± 0.002 µM			
